Reference: patent publication US7754686B2, “Stabilized FGF formulations containing reducing agents” (Novartis Vaccines and Diagnostics, Inc., priority 2000, dated 2010)

Experiments:
[1] = Storage stability of liquid FGF-2 formulations by RP-HPLC (% main peak); type: physicochemical; conditions: 0-10 mM DTT, FIGS. 1-3
Experimental: Reversed Phase HPLC (RP-HPLC) was performed using a Waters 600S controller and a Waters 717 autosampler. Separations were accomplished on a Zorbax 300SB-CN, 4.6 mm ID×15 cm, 5:, cyano column with sample detection at 214 nm on a Waters 486 UV detector. Samples were run at 1.0 mL/min and injection volumes were 50 μL (˜15 μg of protein per injection). […] Much of FGF-2 instability in pharmaceutical formulations can be attributed to oxidation. The stability of FGF-2 in different formulations can be quantitated by measuring the retention of the main peak using RP-HPLC. This main peak corresponds to the FGF-2 that remains in the reduced form. Using the analytical procedures described herein, the storage stability of FGF-2 under several conditions was followed by monitoring changes in the RP-HPLC main peak as a function of storage time at 4° C., 17° C., and 30° C. Experiments were conducted to determine the appropriate levels of dithiothreitol (DTT) required for maximum stability of FGF-2 formulations. Concentrations of DTT from 0 to 10 mM were examined in formulations between pH 5.5 and pH 6.5. In this example, all formulations were liquids and were produced from the same lot of bulk drug. Formulations were stored at 4° C., 17° C., and 30° C. […] Stability of the formulations was assessed by a number of assays. […]

[2] = Storage stability of lyophilized FGF-2 formulations by RP-HPLC (% main peak); type: physicochemical; conditions: 0.35 and 3.5 mg/ml, 10 mM DTT, pH 6.0, storage at 30° C. for 1 year, FIG. 7
Experimental: Reversed Phase HPLC (RP-HPLC) was performed using a Waters 600S controller and a Waters 717 autosampler. Separations were accomplished on a Zorbax 300SB-CN, 4.6 mm ID×15 cm, 5:, cyano column with sample detection at 214 nm on a Waters 486 UV detector. Samples were run at 1.0 mL/min and injection volumes were 50 μL (˜15 μg of protein per injection).
rhFGF-2 was lyophilized using the following cycle: Vials were placed on pre-cool shelves set at 10° C. The shelf temperature was ramped at 40° C./hour to −50° C. where the vials were frozen for 2 hours. The temperature of the shelves was then ramped at 40° C. per hour to −25° C. and held for 2 hours to crystallize the glycine in the formulation. A vacuum of 50 μm was then initiated, and primary drying was accomplished over 32 hours. After primary drying was complete, the shelf temperature was ramped at 25° C./hour to 40° C. for 8 hours. The temperature was then reduced to 4° C. and the vials were stoppered and capped.
FGF-2 stability was examined in both liquid and lyophilized (freeze-dried) formulations using RP-HPLC. As in the previous study, liquid formulations were stored at 4° C., 17° C., and 30° C.
Lyophilized formulations were stored at 40° C. and 50° C. […]
Lyophilized formulations were stored for 12 months at 4° C., 25° C. and 30° C. Stability was monitored with a number of stability indicating assays. […]

Row | Compound | protection of FGF-2 from oxidation [1] | degradation (RP-HPLC main peak) [2]
1 | O[C@H](CS)[C@H](O)CS (racemic) [DTT, dithiothreitol] | protects FGF-2 from oxidation in a concentration-dependent manner | 
2 | rhFGF-2: recombinant human FGF-2 having the sequence set forth in SEQ ID NO:1 |  | little (if any) detectable degradation
